The numbers were not newly measured in patent US12251426B2 (priority 2020, dated 2025), which cites them from elsewhere.

Series [1] has as its system human coronavirus NL63 (HCoV-NL63). To be noted: in vivo study (so in the source).
For series [2], the system named is influenza A virus. Conditions: in vitro.
Series [3] deals with phospholipase A2 (PLA2). To be noted: in vitro.
The target of series [4] is SARS-CoV-2 PLpro (Severe acute respiratory syndrome coronavirus 2, UniProt P0DTD1).
Series [5] concerns the target SARS-CoV 3CLpro (Severe acute respiratory syndrome coronavirus, UniProt P0C6X7).
For series [6], the target named is 3CLpro (Severe acute respiratory syndrome coronavirus 2, UniProt P0DTD1).
For series [7] the following is noted: normal intake.
The target in series [8] is helicase (Severe acute respiratory syndrome coronavirus 2, UniProt P0DTD1).
Series [9] has as its target SARS-CoV-2 S-protein/ACE2 receptor interface (UniProt P0DTC2+Q9BYF1).
Series [10] addresses S2 subunit of SARS-CoV (Severe acute respiratory syndrome coronavirus, UniProt P59594).
Series [11] has as its target SARS-CoV RdRp (Severe acute respiratory syndrome coronavirus, UniProt P0C6X7).
Series [12] concerns the target SARS-CoV PLpro (Severe acute respiratory syndrome coronavirus, UniProt P0C6X7).
Series [13] concerns the target SARS-CoV helicase protein (Severe acute respiratory syndrome coronavirus, UniProt P0C6X7).
Series [14] has as its system T lymphocytes. Conditions: in vitro, exogenous.
The test system of series [15] is alveolar epithelial lining surface. Conditions: acute lung injury caused by sepsis in mice.
Series [16] concerns macrophages. To be noted: in vitro.

Turning to `O=C(O)/C=C/c1ccc(O)c(O)c1` [Caffeic acid, caffeic acid], the water solubility entry was “slightly water-soluble”. Besides, the “inhibition of HCoV-NL63” value in series [1] was “blocking virus attachment”. Further, the “inhibitory effect on replication of influenza A virus” value in series [2] is listed as “highly inhibitory effect”.

`O=C(O[C@@H]1Cc2c(O)cc(O)cc2O[C@@H]1c1cc(O)c(O)c(O)c1)c1cc(O)c(O)c(O)c1` [EGCG, epigallocatechin gallate]: the “inhibition of PLA2” value in series [3] is “inhibit”. Moreover, the “binding affinity to SARS-CoV-2 PLpro” value in [4] is recorded as “strong binding affinity”. Also, the “inhibition of SARS-CoV 3CLpro” value in series [5] is on record as “inhibits”.

For `COc1ccc([C@@H]2CC(=O)c3c(O)cc(O[C@@H]4O[C@H](CO[C@@H]5O[C@@H](C)[C@H](O)[C@@H](O)[C@H]5O)[C@@H](O)[C@H](O)[C@H]4O)cc3O2)cc1O` [Hesperidin, hesperidin], the “binding affinity to 3CLpro” value in [6] is recorded as “high binding affinity”. Also, in [7], the signs of toxicity result is reported as “No signs of toxicity”. Moreover, in [8], the “binding affinity to helicase” value is on record as “high binding affinity”.

Consider `O=c1cc(-c2ccc(O)c(O)c2)oc2cc(O)cc(O)c12` [Luteolin, luteolin], for which, in series [9], the “binding affinity to S-protein/ACE2 receptor interface” value was “high binding affinity”. Also, in [10], the “binding affinity to S2 subunit of SARS-CoV” value is recorded as “high binding affinity”.

As for `O=c1c(O)c(-c2ccc(O)c(O)c2)oc2cc(O)cc(O)c12` [Quercetin, quercetin], the “binding affinity to S-protein/ACE2 receptor interface” value in series [9] is given as “significant binding affinity”. For the same compound, the “inhibition of SARS-CoV 3CLpro” value in [5] is listed as “inhibits”.

For the compound `[Zn+2]` [Zinc ions], the “inhibition of SARS-CoV RdRp” value in series [11] is reported as “direct inhibition”. Also, the “inhibition of SARS-CoV PLpro” value in [12] was “can also inhibit”. Moreover, the “inhibition of SARS-CoV 3CLpro” value in series [5] was “can inhibit”.

As for `O=c1c(O)c(-c2cc(O)c(O)c(O)c2)oc2cc(O)cc(O)c12` [myricetin], the “inhibition of SARS-CoV helicase protein” value in series [13] was “inhibits”.

Take `O=C1O[C@H]([C@@H](O)CO)C(O)=C1O` [vitamin C, ascorbic acid]: the “effect on number, proliferation, and function of T lymphocytes” value in [14] is recorded as “increase”. Further, the “repair of the alveolar epithelial lining surface” value in series [15] was “stimulates repair”.

`C=C1CC[C@H](O)C/C1=C/C=C1\CCC[C@]2(C)[C@@H]([C@H](C)CCCC(C)C)CC[C@@H]12` [vitamin D, cholecalciferol]: in series [16], the “expression of anti-inflammatory cytokines by macrophages” value is “increases” and the “expression of pro-inflammatory cytokines by macrophages” value is reported as “reduces”.
